{
  "source": "patent US7833551B2",
  "about": "“Inhibition of biogenic sulfide production via biocide and metabolic inhibitor combination” (ConocoPhillips Company, priority 2004, dated 2010)",
  "tested_on": "sulfate-reducing bacterial (SRB) consortium",
  "experiment": "Inhibition of sulfate reduction and sulfide production in SRB cultures for one month (MIC and biocide/metabolic inhibitor combinations)",
  "type": "cell-based, sulfate-reducing bacteria (Coleville SRB enrichment)",
  "conditions": "720 h; minimum concentration necessary to prevent sulfide production by SRB for 30 days after contact; compound alone; certain test conditions; read-out: minimum inhibitory concentration (MIC)",
  "method": "The sulfate-reducing bacterial (SRB) consortium used in this study was enriched from produced water obtained from the Coleville oil field near Kindersely, Sadkatchewan, Canada. […] The SRB consortium was maintained by weekly transfer in sPGC medium, and incubated at 30° C. […] The sPGC contained the following components per 1 liter of distilled water: 7 g NaCl; 1.2 g MgCl26H2O; 0.5 g KH2PO4; 1 g NH4Cl; 4.5 g Na2SO4; 0.042 g CaCl22H2O; 0.03 g MgSO47H2O; 0.004 g FeSO47H2O; 0.28 g sodium citrate; 10 g 60% sodium lactate; 1 g yeast extract; and a trace amount of rezazurin.\nThe cultures used in this study were grown in 100 mL of modified Coleville synthetic brine medium (mCSB) in 160-ml serum bottles, with a headspace of 5% H2, 10% CO2 balance N2. […]\nSulfate was measured using the turbidimetric method described in: American Public Health Association, Standard Methods for the Examination of Water and Wastewater. […]\nFor each biocide and metabolic inhibitor tested, the minimum inhibitory concentration (MIC; the minimum amount of biocide required to inhibit sulfate reduction and sulfide production in the SRB culture for one month) was determined.",
  "data": [
    {"smiles": "O=CCCCC=O", "note": "[glutaraldehyde]", "values": [
      {"measurement": "MIC", "value": 5, "unit": "mM"}
    ]}
  ]
}
